Where a name gives a salt, the structure may show the parent alone.
Assays:
[1] = Gravimetric loading of porous silicon p+ membrane with beneficial organic substance; assay type: physicochemical; conditions: for pore volume available occupied by the drug, given as value/drug density / w/w loading (weight gain after drug loading and washing): mesoporous p+ silicon membrane, porosity 63%; for w/w loading (weight gain after drug loading and washing): melt, heated solution or rotary evaporation loading; for maximum w/w loading capacity: 63% porosity silicon matrix, from the density; for pore volume available occupied by the drug: liquid applied directly, 70° C. for 20 minutes
Procedure: The porous membranes were prepared and loaded with beneficial substance according to the following general method:—
A 3 inch diameter p+ wafer (5-15 milli ohm cm) was made mesoporous in a 50:50 by volume mixture of 40 wt % HF and ethanol by anodisation at 35 mA/cm^2 for 90 minutes. […] The membrane was then broken into flakes of weight in the range 10-60 mg for gravimetric and EDX studies of beneficial substance incorporation.
Loading was performed on two similar porous silicon (p+) membranes.
The pore volume available in the porous silicon membrane that can be occupied by the drug is calculated as follows: […]

[2] = Mortality and survival of tumour-bearing nude mice in the chlorambucil study; assay type: in vivo; conditions: for mortality rate: without porous silicon
Procedure: The following protocol was adopted:— • 1. Culture of human cells and implantation of the tumour cells as solid tumours in nude mice: The carcinoma cell-line was cultured in RPMI and Ham's F-12 media respectively with 10% fetal calf serum in a CO2 incubator and subcultured every two to three days until growing to a number enough for implantation in animals. The cells were then implanted as solid tumors in nude mice]. The cells were collected in HBSS (balanced salt solution). One hundred microliters of cell suspension in HBSS (5×10^6 cells) was injected subcutaneously into right gluteal region of nude mice (female, 6 to 9 week old nude mice with average body weight of 25 g, housed in pathogen-free conditions) using a 25-gauge needle. • 2. Animals groups: Animals were randomly grouped into control 1 (injected with peanut oil), control 2 (injected with porous silicon without drug), free chlorambucil (drug injected without porous silicon directly into tumour or injected via intraperitoneal route) and chlorambucil impregnated porous silicon groups. Each group included 16 to 20 animals. • 3. Injection of chlorambucil impregnated porous silicon in transplanted tumours: On day 14 after implantation of tumours (diameter of the tumour about 1 cm), the chlorambucil impregnated formulation was applied to the centre of the tumours. • 4. Tumour volumetrics: The sizes of implanted tumours in nude mice was estimated every 3 days. The largest and smallest diameters were measured by a vernier caliper and tumour volumes estimated according the formula: V=1/2 ab^2, where a and b are largest and smallest tumour diameters respectively, and V is the tumour volume in cm^3.
The effects of intra-tumoural administered chlorambucil loaded porous silicon on the growth of the tumour was studied and compared with control and systemic therapy groups. The body weight of the animals was estimated by subtracting the tumour volume (cm3) from the total body weight (g) every 3 days. The survival time of each experimental animal was recorded.

[3] = HPLC analysis of drug extracted after incorporation into porous silicon; assay type: physicochemical
Procedure: Following incorporation into the membrane, chlorambucil was extracted and subjected to HPLC analysis. A known amount of the incorporated Chlorambucil/porous silicon (typically 10-15 mg, dependent on the level of incorporation) was placed into a volumetric flask and made up to a volume with 100 ml of ethanol, shaken and sonicated for 30 minutes at 30° C. From this stock solution 25 ml were transferred by pipette to a 100 ml volumetric flask to give the sample solution. Prior to analysis by HPLC the sample was filter through a 0.45 micron filter.
The chromatographic conditions used for this analysis were:—

[4] = aqueous environment; cited from earlier work
[5] = 55% porous silicon, thin oxidised layers; cited from earlier work

Compound | pore volume available occupied by the drug, given as value/drug density [1] | w/w loading (weight gain after drug loading and washing) [1] [% w/w] | other results
CN(C)CCC=C1c2ccccc2CCc2ccccc21 [Amitriptyline HCl] | 74.07 /drug density % | 35.07 | 
CS(=O)(=O)OCCCCOS(C)(=O)=O [Busulfan] | 78.53 /drug density % | 37.54 | 
O=C(O)CCCc1ccc(N(CCCl)CCCl)cc1 [Chlorambucil] | 88.40 /drug density % | 39.19 | mortality rate ([2]; 720 ug): 50%; mortality rate ([2]; 1500 ug (2×LD50), intratumour): 90%; LD50 ([2]; nude mice, dose per animal): 720 µg; degradation after incorporation into and release from porous silicon (HPLC) [3]: without significant degradation; apparent activation energy for thermal degradation (Ea) [4]: 24.4 kcal/mol
O=P1(N(CCCl)CCCl)NCCCO1 (centres unmarked) [Cyclophosohamide] | 104 /drug density % | 44.4 | 
CCCCCCCCCCCC(=O)O [Lauric Acid] | 55.62 /drug density % | 42.57 | 
c1ccc([C@H]2CN3CCSC3=N2)cc1 [Levamisole HCl] | 64 /drug density % | 32.93 | 
CC(=O)O[C@]1(C(C)=O)CC[C@H]2[C@@H]3C[C@H](C)C4=CC(=O)CC[C@]4(C)[C@H]3CC[C@@]21C [Medroxyprogesteron Acetate] |  | 19.81 | 
CC(=O)O[C@H]1C(=O)[C@@]2(C)[C@H]([C@H](OC(=O)c3ccccc3)[C@]3(O)C[C@H](OC(=O)[C@H](O)[C@@H](NC(=O)c4ccccc4)c4ccccc4)C(C)=C1C3(C)C)[C@]1(OC(C)=O)CO[C@@H]1C[C@@H]2O [Paclitaxel] |  | 16.71 | degradation after incorporation into and release from porous silicon (HPLC) [3]: without significant degradation
CC1=CC(=O)c2c(O)cccc2C1=O [Plumbagin] | 98.50 /drug density % | 34.68 | 
CCN(CC)CCOC(=O)c1ccc(N)cc1 [Procaine] |  | 35.33 | loading w/v ([1]; EtOH:dH2O 1:1 solution, 110° C., 25 minutes): 71.38 % w/v
CC(C)Cc1ccc(C(C)C(=O)O)cc1 (stereo not drawn) [S-(+)-Ibuprofen] |  | 40.67 | 
Cc1c(C)c2c(c(C)c1O)CC[C@@](C)(CCC[C@H](C)CCC[C@H](C)CCCC(C)C)O2 [Vitamin E, α-tocopherol] |  | 37 | maximum w/w loading capacity [1]: 41%; pore volume available occupied by the drug [1]: 88%
Vitamin K |  | 36 | maximum w/w loading capacity [1]: 42%; pore volume available occupied by the drug [1]: 80%
albumin |  |  | volume percentage adsorbed [5]: 10.7%

From patent publication US8088401B2, “Composite material comprising a porous semiconductor impregnated with an organic substance” (Psimedica Limited, priority 2003, dated 2012)
